According to PubChem BioAssay AID1845207 (Molecular Pharmacology Branch, DTP, NCI, 2023):

System: NCI-H1876 tumor spheroid viability
Assay: Anticancer human tumor NCI-H1876 cell line growth inhibition;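 further: spheroids exposed to compounds for seven days before the viability read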;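 on viability, T/C: percent of DMSO vehicle control viability so 100% = vehicle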
Settings: spheroids with HUVEC and MSC; for IC50: curve of first compound; for viability, T/C: stronger effect = lower value
Source text: Multicellular complex tumor spheroid response to DNA repair inhibitors in combination with DNA-damaging drugs
This study explores the anticancer activities of DNA-damaging drugs and inhibitors of DNA damage repair, both as single agents and in combinations. Complex tumor spheroids comprised of malignant cells, endothelial cells and mesenchymal stem cells served as an in vitro model for human solid tumors. This model system incorporates physiologically relevant features and patient-derived or established malignant cell lines with clinically relevant genetic alterations from many tumor types. Twenty-six patient-derived or established malignant cell lines were evaluated representing sarcoma, melanoma, small cell lung cancer (SCLC), non-small cell lung cancer (NSCLC), as well as bladder, ovarian and pancreatic cancers. The concentration ranges selected for each drug and investigational agent were based upon clinically achievable concentrations if the clinical Cmax of the agent was known.
Compounds. The drugs and compounds olaparib (NSC753686), talazoparib (NSC767125), berzosertib (NSC777718), elimusertib (NSC800525), nedisertib (NSC802822), VX-984 (NSC792969), AZD-1390 (NSC803789), temozolomide (NSC362856), topotecan (NSC609699), trabectedin (NSC813783), staurosporine (NSC755774), and gemcitabine (NSC613327) were obtained from the National Cancer Institute (NCI) Developmental Therapeutics Program Chemical Repository. The FDA-approved anticancer drug set is available from the Developmental Therapeutics Program at https://dtp.cancer.gov/organization/dscb/obtaining/available_plates.htm. […] The stock solutions were prepared in dimethyl sulfoxide (DMSO, Sigma-Aldrich, St. Louis, MO, cat. D2650) at 400-fold the tested concentration and stored at -70 degrees C. Prior to their use, the stock solutions were diluted in fresh medium and the final DMSO concentration in the assay was 0.25% (v/v). All drugs and investigational agents were tested over a range starting from a high concentration at or near the clinical Cmax and decreasing in half-log increments. If the clinical Cmax for an agent had not been determined, the highest concentration tested was 10 microM.
Cell Lines. The patient-derived cancer cell (PDC) lines: 156681-154-R-J1-PDC, 283228-195-R-J1-PDC, 287954-098-R-J1-PDC, 292921-168-R-J2-PDC, 349418-098-R-PDC, 425362-245-T-J1-PDC, 556581-035-R-J1-PDC, and BL0293-F563-PDC were received from the NCI Patient-Derived Models Repository (PDMR, https://pdmr.cancer.gov). The established cell lines HS-SY-2 (RRID:CVCL_8719), MPNST, and SYO-1 (RRID:CVCL_7146) were obtained from the Sloan Kettering Institute. The alveolar soft parts sarcoma cell line ASPS-1 (RRID:CVCL_S738) was established at the NCI and grown from internal seed stocks. The following established cell lines were purchased from the American Type Culture Collection (ATCC, Manassas, VA): G-401 (ATCC, cat. CRL-1441, RRID:CVCL_0270), SW982 (ATCC, cat. HTB-93, RRID:CVCL_1734), VA-ES-BJ (ATCC, cat. CRL-2138, RRID:CVCL_1785), NCI-H719 (ATCC, cat. CRL-5837, RRID:CVCL_1582), NCI-H196 (ATCC, cat. CRL-5823, RRID:CVCL_1509), NCI-H841 (ATCC, cat. CRL-5845, RRID:CVCL_1595), NCI-H1618 (ATCC, cat. CRL-5879, RRID:CVCL_1480), NCI-H1876 (ATCC, cat. CRL-5902, RRID:CVCL_1503), DMS 114 (ATCC, cat. CRL-2066; RRID:CVCL_1174), NCI-H211 (ATCC, cat. CRL-5824; RRID:CVCL_1529), and SW 1271 (ATCC, cat. CRL-2177, RRID:CVCL_1716). The small cell lung cancer cell line COR-L88 was purchased from Sigma-Aldrich (cat. 92031917-1VL, RRID:CVCL_1141). The non-small cell lung cancer cell lines NCI-H226 (RRID:CVCL_1544) and NCI-H322M (RRID:CVCL_1557) were established at the NCI and grown from internal seed stocks. Pooled donor human umbilical vein endothelial cells (HUVEC, Lonza, cat. CC-2519) and human mesenchymal stem cells (hMSC, Lonza, cat. PT-2501) were purchased from Lonza (Walkersville, MD).
Cell Culture. All cells were maintained in an incubator at 37 degrees C and 5% CO2 with 95% humidity. […]

[1] = second compound 0.003 µM, first compound 0.0949 µM
[2] = second compound 0.003 µM, first compound 0.3 µM
[3] = second compound 0.003 µM, first compound 0.949 µM
[4] = second compound 0.003 µM, first compound 3 µM
[5] = second compound 0.00949 µM, first compound 0.0949 µM
[6] = second compound 0.00949 µM, first compound 0.3 µM
[7] = second compound 0.00949 µM, first compound 0.949 µM
[8] = second compound 0.00949 µM, first compound 3 µM
[9] = second compound 0.03 µM, first compound 0.0949 µM
[10] = second compound 0.03 µM, first compound 0.3 µM
[11] = second compound 0.03 µM, first compound 0.949 µM
[12] = second compound 0.03 µM, first compound 3 µM
[13] = second compound 0.0949 µM, first compound 0.0949 µM
[14] = second compound 0.0949 µM, first compound 0.3 µM
[15] = second compound 0.0949 µM, first compound 0.949 µM
[16] = second compound 0.0949 µM, first compound 3 µM
[17] = second compound 0.3 µM, first compound 0.0949 µM
[18] = second compound 0.3 µM, first compound 0.3 µM
[19] = second compound 0.3 µM, first compound 0.949 µM
[20] = second compound 0.3 µM, first compound 3 µM

Row | Structure (SMILES) | IC50 (second compound 0.003 µM) | IC50 (second compound 0.00949 µM) | IC50 (second compound 0.03 µM) | IC50 (second compound 0.0949 µM) | IC50 (second compound 0.3 µM) | viability, T/C [1] | viability, T/C [2] | viability, T/C [3] | viability, T/C [4] | viability, T/C [5] | viability, T/C [6] | viability, T/C [7] | viability, T/C [8] | viability, T/C [9] | viability, T/C [10] | viability, T/C [11] | viability, T/C [12] | viability, T/C [13] | viability, T/C [14] | viability, T/C [15] | other results
1 | Cn1ncnc1[C@H]1c2n[nH]c(=O)c3cc(F)cc(c23)N[C@@H]1c1ccc(F)cc1 + CC[C@@]1(O)C(=O)OCc2c1cc1n(c2=O)Cc2cc3c(CN(C)C)c(O)ccc3nc2-1 | 57.9 nM | < 9.49 nM | < 9.49 nM | < 9.49 nM | < 9.49 nM | 36% | 39.9% | 6.31% | 0.18% | 29% | 19.4% | 6.41% | 0.15% | 18.9% | 18% | 5.53% | 0.13% | 10.8% | 10.3% | 3.73% | viability, T/C (second compound 0.003 µM, first compound 0.00949 µM): 71%; viability, T/C (second compound 0.003 µM, first compound 0.03 µM): 60.4%; viability, T/C (second compound 0.00949 µM, first compound 0.00949 µM): 44.6%; viability, T/C (second compound 0.00949 µM, first compound 0.03 µM): 37.4%; viability, T/C (second compound 0.03 µM, first compound 0.00949 µM): 14.9%; viability, T/C (second compound 0.03 µM, first compound 0.03 µM): 28.7%; viability, T/C (second compound 0.0949 µM, first compound 0.00949 µM): 9.15%; viability, T/C (second compound 0.0949 µM, first compound 0.03 µM): 28.8%; viability, T/C [16]: 0.14%; viability, T/C (second compound 0.3 µM, first compound 0.00949 µM): 3.72%; viability, T/C (second compound 0.3 µM, first compound 0.03 µM): 3.65%; viability, T/C [17]: 3.75%; viability, T/C [18]: 3.83%; viability, T/C [19]: 1.56%; viability, T/C [20]: 13.9%
2 | O=C(c1cc(Cc2n[nH]c(=O)c3ccccc23)ccc1F)N1CCN(C(=O)C2CC2)CC1 + CC[C@@]1(O)C(=O)OCc2c1cc1n(c2=O)Cc2cc3c(CN(C)C)c(O)ccc3nc2-1 | 325 nM | < 94.9 nM | < 94.9 nM | < 94.9 nM | < 94.9 nM | 60.1% | 49.8% | 41.9% | 30.9% | 21.2% | 21% | 19.2% | 20.6% | 12.3% | 12.6% | 13.7% | 23.3% | 35.7% | 7.72% | 8.21% | viability, T/C (second compound 0.003 µM, first compound 9.49 µM): 22%; viability, T/C (second compound 0.003 µM, first compound 30 µM): 16%; viability, T/C (second compound 0.00949 µM, first compound 9.49 µM): 35.5%; viability, T/C (second compound 0.00949 µM, first compound 30 µM): 15.7%; viability, T/C (second compound 0.03 µM, first compound 9.49 µM): 18.2%; viability, T/C (second compound 0.03 µM, first compound 30 µM): 14.3%; viability, T/C [16]: 10%; viability, T/C (second compound 0.0949 µM, first compound 9.49 µM): 12.8%; viability, T/C (second compound 0.0949 µM, first compound 30 µM): 14.4%; viability, T/C [17]: 4.06%; viability, T/C [18]: 3.8%; viability, T/C [19]: 4.04%; viability, T/C [20]: 5.04%; viability, T/C (second compound 0.3 µM, first compound 9.49 µM): 13.5%; viability, T/C (second compound 0.3 µM, first compound 30 µM): 9.66%
